Test results as given in ChEMBL document CHEMBL1142200, “Efficacy of delayed treatment with ST-246 given orally against systemic orthopoxvirus infections in mice” (Antimicrob Agents Chemother, 2007).
Activity calls are given as the source filed them. The calls are words filed in the database; no cut-off is given here.

How the values were obtained:
Mus musculus [1] = experiment: Effect on mortality of BALB/c mouse inoculated with Cowpox virus at 30 mg/kg after 48 hrs of viral infection, po once daily for 14 days relative to control; type: functional
Mus musculus [2] = experiment: Effect on mortality of BALB/c mouse inoculated with Cowpox virus at 100 mg/kg after 48 hrs of viral infection, po once daily for 14 days relative to control; type: functional
Mus musculus [3] = experiment: Effect on mortality of BALB/c mouse inoculated with Cowpox virus at 100 mg/kg after 72 hrs of viral infection, po once daily for 14 days relative to control; type: functional
Mus musculus [4] = experiment: Effect on mortality of BALB/c mouse inoculated with Cowpox virus BR at 100 mg/kg after 4 hrs of viral infection, po once daily for 7 days relative to control; type: functional
Mus musculus [5] = experiment: Effect on mortality of BALB/c mouse inoculated with Cowpox virus BR at 100 mg/kg after 4 hrs of viral infection, po once daily for 14 days relative to control; type: functional
Mus musculus [6] = experiment: Effect on mortality of BALB/c mouse inoculated with Cowpox virus BR at 100 mg/kg after 24 hrs of viral infection, po once daily for 14 days relative to control; type: functional
Mus musculus [7] = experiment: Effect on mortality of BALB/c mouse inoculated with Vaccinia virus WR at 100 mg/kg after 4 hrs of viral infection, po once daily for 7 days relative to control; type: functional
Mus musculus [8] = experiment: Effect on mortality of BALB/c mouse inoculated with Vaccinia virus WR at 100 mg/kg after 24 hrs of viral infection, po once daily for 10 days relative to control; type: functional
Mus musculus [9] = experiment: Effect on mortality of BALB/c mouse inoculated with Vaccinia virus WR at 100 mg/kg after 24 hrs of viral infection, po once daily for 14 days relative to control; type: functional
Mus musculus [10] = experiment: Effect on mortality of BALB/c mouse inoculated with Cowpox virus at 100 mg/kg after 4 hrs of viral infection, po once daily for 14 days relative to control; type: functional
Mus musculus [11] = experiment: Effect on mortality of BALB/c mouse inoculated with Cowpox virus at 30 mg/kg after 4 hrs of viral infection, po once daily for 14 days relative to control; type: functional
Mus musculus [12] = experiment: Effect on mortality of A/NCr mouse inoculated with ectromelia virus at 100 mg/kg after 72 hrs of viral infection, po once daily for 10 days relative control; type: functional
Mus musculus [13] = experiment: Effect on mortality of BALB/c mouse inoculated with Vaccinia virus WR at 50 mg/kg after 24 hrs of viral infection, po for 9 days; type: functional, organism-based; design: dose 50 mg/kg
Mus musculus [14] = experiment: Effect on mortality of BALB/c mouse inoculated with Cowpox virus BR at 100 mg/kg after 24 hrs of viral infection, po once daily for 5 days relative to control; type: functional
Ectromelia virus [15] = experiment: Reduction of Ectromelia virus replication in BALB/c mouse nasal wash at 100 mg/kg, po once daily after 14 days; type: functional, organism-based; design: dose 100 mg/kg
Ectromelia virus [16] = experiment: Reduction of Ectromelia virus replication in BALB/c mouse liver at 100 mg/kg, po once daily after 4 days; type: functional, organism-based; design: dose 100 mg/kg
Ectromelia virus [17] = experiment: Reduction of Ectromelia virus replication in BALB/c mouse liver at 100 mg/kg, po once daily after 8 days; type: functional, organism-based; design: dose 100 mg/kg
Ectromelia virus [18] = experiment: Reduction of Ectromelia virus replication in BALB/c mouse lung at 100 mg/kg, po once daily after 4 days; type: functional, organism-based; design: dose 100 mg/kg
Ectromelia virus [19] = experiment: Reduction of Ectromelia virus replication in BALB/c mouse lung at 100 mg/kg, po once daily after 8 days; type: functional, organism-based; design: dose 100 mg/kg
Ectromelia virus [20] = experiment: Reduction of Ectromelia virus replication in BALB/c mouse spleen at 100 mg/kg, po once daily after 8 days; type: functional, organism-based; design: dose 100 mg/kg
Ectromelia virus [21] = experiment: Reduction of Ectromelia virus replication in BALB/c mouse esophagus at 100 mg/kg, po once daily after 8 days; type: functional, organism-based; design: dose 100 mg/kg
Cowpox virus [22] = experiment: Reduction of Cowpox virus BR replication in BALB/c mouse liver at 50 mg/kg after 24 hrs of viral infection, po for 9 days; type: functional, organism-based; design: dose 50 mg/kg
Cowpox virus [23] = experiment: Reduction of Cowpox virus BR replication in BALB/c mouse kidney at 50 mg/kg after 24 hrs of viral infection, po for 9 days; type: functional, organism-based; design: dose 50 mg/kg
Vaccinia virus [24] = experiment: Reduction of Vaccinia virus WR replication in BALB/c mouse lung at 50 mg/kg after 24 hrs of viral infection, po for 9 days; type: functional, organism-based; design: dose 50 mg/kg; settings: Orthopoxvirus vaccinia
Vaccinia virus [25] = experiment: Reduction of Vaccinia virus WR replication in BALB/c mouse spleen at 50 mg/kg after 24 hrs of viral infection, po for 9 days; type: functional, organism-based; design: dose 50 mg/kg; settings: Orthopoxvirus vaccinia
Ectromelia virus [26] = experiment: Reduction of Ectromelia virus replication in BALB/c mouse nasal wash at 100 mg/kg, po once daily after 6 days; type: functional, organism-based; design: dose 100 mg/kg
Mus musculus [27] = experiment: Effect on mortality of BALB/c mouse inoculated with Cowpox virus at 30 mg/kg after 72 hrs of viral infection, po once daily for 14 days relative to control; type: functional
Mus musculus [28] = experiment: Effect on mortality of BALB/c mouse inoculated with Cowpox virus at 10 mg/kg after 72 hrs of viral infection, po once daily for 14 days relative to control; type: functional
Mus musculus [29] = experiment: Effect on mortality of A/NCr mouse inoculated with 41 PFU ectromelia virus at 100 mg/kg after 24 hrs of viral infection, po twice daily for 14 days; type: functional
Mus musculus [30] = experiment: Effect on mortality of A/NCr mouse inoculated with 4100 PFU ectromelia virus at 100 mg/kg after 24 hrs of viral infection, po twice daily for 14 days; type: functional
Ectromelia virus [31] = experiment: Reduction of Ectromelia virus replication in BALB/c mouse spleen at 100 mg/kg, po once daily after 14 days; type: functional, organism-based; design: dose 100 mg/kg

## O=C(NN1C(=O)[C@@H]2[C@@H]3C=C[C@@H]([C@H]4C[C@@H]34)[C@@H]2C1=O)c1ccc(C(F)(F)F)cc1 [TECOVIRIMAT]
Mus musculus [1]
  Activity: 20%
Mus musculus [2]
  Activity: 7%
Mus musculus [3]
  Activity: 40%
Mus musculus [4]
  Activity: 7%
Mus musculus [5]
  Activity: 7%
Mus musculus [6]
  Activity: 0%
Mus musculus [7]
  Activity: 20%
Mus musculus [8]
  Activity: 0%
Mus musculus [9]
  Activity: 7%
Mus musculus [10]
  Activity: 11%
Mus musculus [11]
  Activity: 50%
Mus musculus [12]
  Activity: 0%
Mus musculus [13]
  Activity: Active
Mus musculus [14]
  Activity: 73%
Ectromelia virus [15]
  Activity: Active
Ectromelia virus [16]
  Activity: Active
Ectromelia virus [17]
  Activity: Active
Ectromelia virus [18]
  Activity: Active
Ectromelia virus [19]
  Activity: Active
Ectromelia virus [20]
  Activity: Active
Ectromelia virus [21]
  Activity: Active
Cowpox virus [22]
  Activity: Active
Cowpox virus [23]
  Activity: Active
Vaccinia virus [24]
  Activity: Active
Vaccinia virus [25]
  Activity: Active
Ectromelia virus [26]
  Activity: inactive
Mus musculus [27]
  Activity: 40%
Mus musculus [28]
  Activity: 47%
Mus musculus [29]
  Activity: 0%
Mus musculus [30]
  Activity: 0%
Ectromelia virus [31]
  Activity: Active
